Values quoted from earlier work in PubChem BioAssay AID1259409 (Chemical Carcinogenesis Research Information System (CCRIS), 2018).

Test system: rodent chemically induced tumor inhibition, incidence and multiplicity
Assay: CCRIS tumor inhibitor studies

CC(C)Cn1c(=O)n(C)c(=O)c2[nH]cnc21
tumour outcome (control, treated, inhibition, significance) (Carcinogen: 7,12-DIMETHYLBENZ[A]ANTHRACENE, 57-97-6, Dose [Inhibitor]: 5 UMOL 2/WK FOR 48 WK APPLIED AT LEAST 5 MIN BEFORE AND TO SAME AREA OF SKIN AS EACH PROMOTER DOSE, STARTING 2 WK AFTER, Route [Inhibitor]: DERMAL, Species: MOUSE, Strain/Sex: CD-1/FEMALE, Target Tissue: Type of Lesion: SKIN: CARCINOMA, Dose [Carcinogen]: 0.1 UMOL ONCE 2 WK PRIOR TO FIRST DOSE OF INHIBITOR, Promoter: 12-O-TETRADECANOYLPHORBOL-13-ACETATE;16561-29-8): 35%, 19%, 46%, not calculated
tumour outcome (control, treated, inhibition, significance) (Carcinogen: 7,12-DIMETHYLBENZ[A]ANTHRACENE, 57-97-6, Dose [Inhibitor]: 5 UMOL 2/WK FOR 48 WK APPLIED AT LEAST 5 MIN BEFORE AND TO SAME AREA OF SKIN AS EACH PROMOTER DOSE, STARTING 2 WK AFTER, Route [Inhibitor]: DERMAL, Species: MOUSE, Strain/Sex: CD-1/FEMALE, Target Tissue: Type of Lesion: SKIN: PAPILLOMA, Dose [Carcinogen]: 0.1 UMOL ONCE 2 WK PRIOR TO FIRST DOSE OF INHIBITOR, Promoter: 12-O-TETRADECANOYLPHORBOL-13-ACETATE;16561-29-8): 100%, 82%, 18%, not calculated
tumour outcome (control, treated, inhibition, significance) (Carcinogen: 7,12-DIMETHYLBENZ[A]ANTHRACENE, 57-97-6, Dose [Inhibitor]: 5 UMOL APPLIED 2/WK THROUGHOUT THE STUDY AT LEAST 5 MIN BEFORE AND TO SAME AREA OF SKIN AS EACH DOSE OF PROMOTER STARTIN, Route [Inhibitor]: DERMAL, Species: MOUSE, Strain/Sex: CD-1/FEMALE, Target Tissue: Type of Lesion: SKIN: CARCINOMA, Dose [Carcinogen]: 0.1 UMOL APPLIED ONCE, Promoter: 12-O-TETRADECANOYLPHORBOL-13-ACETATE, 16561-29-8): 35%, 19%, 46%, not calculated
tumour outcome (control, treated, inhibition, significance) (Carcinogen: 7,12-DIMETHYLBENZ[A]ANTHRACENE, 57-97-6, Dose [Inhibitor]: 5 UMOL APPLIED 2/WK THROUGHOUT THE STUDY AT LEAST 5 MIN BEFORE AND TO SAME AREA OF SKIN AS EACH DOSE OF PROMOTER STARTIN, Route [Inhibitor]: DERMAL, Species: MOUSE, Strain/Sex: CD-1/FEMALE, Target Tissue: Type of Lesion: SKIN: PAPILLOMA, Dose [Carcinogen]: 0.1 UMOL APPLIED ONCE, Promoter: 12-O-TETRADECANOYLPHORBOL-13-ACETATE, 16561-29-8): 100%, 82%, 18%, not calculated
tumour outcome (control, treated, inhibition, significance) (Carcinogen: 7,12-DIMETHYLBENZ[A]ANTHRACENE, 57-97-6, Dose [Inhibitor]: 10 UMOL 1/WK FOR 30 WK APPLIED AT LEAST 5 MIN PRIOR TO EACH CARCINOGEN TREATMENT (STUDY DURATION: 30 WK), Route [Inhibitor]: DERMAL, Species: MOUSE, Strain/Sex: CD-1/FEMALE, Target Tissue: Type of Lesion: SKIN: CARCINOMA, Dose [Carcinogen]: 0.2 UMOL 1/WK FOR 30 WK, Promoter: NONE USED): 59%, 42%, 29%, not significant
tumour outcome (control, treated, inhibition, significance) (Carcinogen: 7,12-DIMETHYLBENZ[A]ANTHRACENE, 57-97-6, Dose [Inhibitor]: 10 UMOL 1/WK FOR 30 WK APPLIED AT LEAST 5 MIN PRIOR TO EACH CARCINOGEN TREATMENT (STUDY DURATION: 30 WK), Route [Inhibitor]: DERMAL, Species: MOUSE, Strain/Sex: CD-1/FEMALE, Target Tissue: Type of Lesion: SKIN: PAPILLOMA, Dose [Carcinogen]: 0.2 UMOL ONCE 1/WK FOR 30 WK, Promoter: NONE USED): 100%, 100%, 0%, not significant
tumour outcome (control, treated, inhibition, significance) (Carcinogen: 7,12-DIMETHYLBENZ[A]ANTHRACENE, 57-97-6, Dose [Inhibitor]: 10 UMOL APPLIED 1/WK THROUGHOUT THE STUDY AT LEAST 5 MIN BEFORE AND TO SAME AREA OF SKIN AS EACH APPLICATION OF CARCINOG, Route [Inhibitor]: DERMAL, Species: MOUSE, Strain/Sex: CD-1/FEMALE, Target Tissue: Type of Lesion: SKIN: CARCINOMA, Dose [Carcinogen]: 0.2 UMOL 1/WK FOR 30 WK, Promoter: NONE USED): 59%, 42%, 29%, not significant
tumour outcome (control, treated, inhibition, significance) (Carcinogen: 7,12-DIMETHYLBENZ[A]ANTHRACENE, 57-97-6, Dose [Inhibitor]: 10 UMOL APPLIED 1/WK THROUGHOUT THE STUDY AT LEAST 5 MIN BEFORE AND TO SAME AREA OF SKIN AS EACH APPLICATION OF CARCINOG, Route [Inhibitor]: DERMAL, Species: MOUSE, Strain/Sex: CD-1/FEMALE, Target Tissue: Type of Lesion: SKIN: PAPILLOMA, Dose [Carcinogen]: 0.2 UMOL 1/WK FOR 30 WK, Promoter: NONE USED): 100%, 100%, 0%, not significant
outcome (Carcinogen: 7,12-DIMETHYLBENZ[A]ANTHRACENE, 57-97-6, Dose [Inhibitor]: 10 UMOL APPLIED ONCE AT LEAST 5 MIN PRIOR TO CARCINOGEN DOSE (STUDY DURATION: 34 WK), Route [Inhibitor]: DERMAL, Species: MOUSE, Strain/Sex: CD-1/FEMALE, Target Tissue: Type of Lesion: SKIN: CARCINOMA, Dose [Carcinogen]: 3.6 UMOL ONCE, Promoter: NONE USED): 0%, 4%, not calculated

Nc1nc(-c2ccccc2)c(Br)c(=O)[nH]1
tumour outcome (control, treated, inhibition, significance) (Carcinogen: N-[4-(5-NITRO-2-FURYL)-2-THIAZOLYL]FORMAMIDE, 24554-26-5, Dose [Inhibitor]: 200 MG/KG IN CARBOXYMETHYL-CELLULOSE, POLYSORBATE 80, NACL AND BENZYL ALCOHOL, 2/WK BEGINNING ON DAY 30 OF CARCINOGEN TR, Route [Inhibitor]: INTRAGASTRIC, Species: MOUSE, Strain/Sex: C3H/FEMALE, Target Tissue: Type of Lesion: BLADDER: TRANSITIONAL CELL CARCINOMA, Dose [Carcinogen]: 0.13% IN DIET FOR 192 D, Promoter: NONE USED): 24/39 (62%), 6/43 (14%), 77%, p=0.0001
tumour outcome (control, treated, inhibition, significance) (Carcinogen: N-[4-(5-NITRO-2-FURYL)-2-THIAZOLYL]FORMAMIDE, 24554-26-5, Dose [Inhibitor]: 200 MG/KG IN CARBOXYMETHYL-CELLULOSE, POLYSORBATE 80, NACL AND BENZYL ALCOHOL, 2/WK BEGINNING ON DAY 30 OF CARCINOGEN TR, Route [Inhibitor]: INTRAPERITONEAL, Species: MOUSE, Strain/Sex: C3H/FEMALE, Target Tissue: Type of Lesion: BLADDER: TRANSITIONAL CELL CARCINOMA, Dose [Carcinogen]: 0.13% IN DIET FOR 192 D, Promoter: NONE USED): 18/22 (82%), 5/9 (56%), 32%, p<0.2
tumour outcome (control, treated, inhibition, significance) (Carcinogen: N-[4-(5-NITRO-2-FURYL)-2-THIAZOLYL]FORMAMIDE, 24554-26-5, Dose [Inhibitor]: 200 MG/KG IN CARBOXYMETHYL-CELLULOSE, POLYSORBATE 80, NACL AND BENZYL ALCOHOL, 2/WK BEGINNING ON DAY 150 OF CARCINOGEN T, Route [Inhibitor]: INTRAPERITONEAL, Species: MOUSE, Strain/Sex: C3H/FEMALE, Target Tissue: Type of Lesion: BLADDER: TRANSITIONAL CELL CARCINOMA, Dose [Carcinogen]: 0.13% IN DIET FOR 192 D, Promoter: NONE USED): 18/22 (82%), 17/19 (89%), -8%, p=0.489

O/N=C/Cc1c[nH]c2ccccc12
tumour outcome (control, treated, inhibition, significance) (Carcinogen: 7,12-DIMETHYLBENZ[A]ANTHRACENE, 57-97-6, Dose [Inhibitor]: 0.1 MMOL IN 1 ML DIMETHYL SULFOXIDE ONCE 20 HR PRIOR TO CARCINOGEN ADMINISTRATION FOLLOWED BY A 14 WK OBSERVATION PERIOD, Route [Inhibitor]: GAVAGE, Species: RAT, Strain/Sex: SPRAGUE-DAWLEY/FEMALE, Target Tissue: Type of Lesion: MAMMARY GLAND: TUMOR, Dose [Carcinogen]: 12 MG IN 1 ML OLIVE OIL ONCE, Promoter: NONE USED): 64%, 19%, 70%, p<0.05

O=CC(O)C(O)C(O)CO (stereo unspecified)
tumour outcome (control, treated, inhibition, significance) (Carcinogen: 1,2-DIMETHYLHYDRAZINE, 540-73-8, Dose [Inhibitor]: 0, 10% IN FIBER-FREE DIET FOR 24 WK BEGINNING POST CARCINOGEN TREATMENT (STUDY DURATION: 32 WK), Route [Inhibitor]: ORAL, Species: RAT, Strain/Sex: SPRAGUE-DAWLEY/MALE, Target Tissue: Type of Lesion: COLON: ADENOCARCINOMA, Dose [Carcinogen]: 12 MG/KG BW 1/WK FOR 8 WK, Promoter: NONE USED): 73%, 53%, 27%, p=0.05

CCCCCCCCCCCCCCCCCCN
tumour outcome (control, treated, inhibition, significance) (Carcinogen: 7,12-DIMETHYLBENZ[A]ANTHRACENE, 57-97-6, Dose [Inhibitor]: 0, 0.01% IN 20% CORN OIL DIET BEGINNING 1 WK POST CARCINOGEN DOSE (STUDY DURATION: 17 WK), Route [Inhibitor]: ORAL, Species: RAT, Strain/Sex: SPRAGUE-DAWLEY/FEMALE, Target Tissue: Type of Lesion: MAMMARY GLAND: ADENOCARCINOMA, Dose [Carcinogen]: 5 MG IN 0.5 ML OLIVE OIL ONCE, Promoter: NONE USED): 57%, 57%, 0%, not significant
tumour outcome (control, treated, inhibition, significance) (Carcinogen: 7,12-DIMETHYLBENZ[A]ANTHRACENE, 57-97-6, Dose [Inhibitor]: 0, 0.1% IN 20% CORN OIL DIET BEGINNING 1 WK POST CARCINOGEN DOSE (STUDY DURATION: 17 WK), Route [Inhibitor]: ORAL, Species: RAT, Strain/Sex: SPRAGUE-DAWLEY/FEMALE, Target Tissue: Type of Lesion: MAMMARY GLAND: ADENOCARCINOMA, Dose [Carcinogen]: 5 MG IN 0.5 ML OLIVE OIL ONCE, Promoter: NONE USED): 57%, 14%, 75%, p<0.001
